According to ChEMBL document CHEMBL3044880, “Synthesis, NMR spectral studies and antimicrobial evaluation of some 2-(benzothiazol-2-yl)-1-(alkyl-2r,6c-diarylpiperidin-4-ylidine)hydrazine derivatives” (2013):
≈ marks a conversion by molar mass, not a printed value. Calls of active or inactive are those of the source. The rule behind the calls is not given here.

What was measured:
Type in all cases: functional
Cryptococcus neoformans = experiment: Antimicrobial activity against Cryptococcus neoformans assessed as growth inhibition after 72-96 hr by two-fold serial dilution method
Aspergillus flavus = experiment: Antimicrobial activity against Aspergillus flavus assessed as growth inhibition after 72-96 hr by two-fold serial dilution method
Candida albicans = experiment: Antimicrobial activity against Candida albicans assessed as growth inhibition by two-fold serial dilution method
Fusarium oxysporum = experiment: Antimicrobial activity against Fusarium oxysporum assessed as growth inhibition after 72-96 hr by two-fold serial dilution method
Aspergillus niger = experiment: Antimicrobial activity against Aspergillus niger assessed as growth inhibition after 72-96 hr by two-fold serial dilution method
Staphylococcus aureus = experiment: Antimicrobial activity against Staphylococcus aureus MTCC 96 assessed as growth inhibition after 24 hr by two-fold serial dilution method
Bacillus subtilis = experiment: Antimicrobial activity against Bacillus subtilis MTCC 121 assessed as growth inhibition after 24 hr by two-fold serial dilution method; settings: MTCC 121, 24 h
Escherichia coli = experiment: Antimicrobial activity against Escherichia coli MTCC 443 assessed as growth inhibition after 24 hr by two-fold serial dilution method; settings: MTCC 443, 24 h
Pseudomonas aeruginosa = experiment: Antimicrobial activity against Pseudomonas aeruginosa MTCC 741 assessed as growth inhibition after 24 hr by two-fold serial dilution method; settings: MTCC 741, 24 h
Klebsiella pneumoniae = experiment: Antimicrobial activity against Klebsiella pneumoniae MTCC 2272 assessed as growth inhibition after 24 hr by two-fold serial dilution method; settings: MTCC 2272, 24 h

Row | Structure (SMILES) | MIC (Cryptococcus neoformans) | MIC (Aspergillus flavus) | MIC (Candida albicans) | MIC (Fusarium oxysporum) | MIC (Aspergillus niger) | MIC (Staphylococcus aureus; MTCC 96, 24 h) | MIC (Bacillus subtilis) | MIC (Escherichia coli) | MIC (Pseudomonas aeruginosa) | MIC (Klebsiella pneumoniae) | MIC (Staphylococcus aureus)
1 | C[C@@H]1[C@H](O)[C@@H](C)/C=C/C=C/C=C/C=C/C=C/C=C/C=C/[C@H](O[C@@H]2O[C@H](C)[C@@H](O)[C@H](N)[C@@H]2O)C[C@@H]2O[C@](O)(C[C@@H](O)C[C@@H](O)[C@H](O)CC[C@@H](O)C[C@@H](O)CC(=O)O[C@H]1C)C[C@H](O)[C@H]2C(=O)O [AMPHOTERICIN B] | 25 µg/mL (≈ 27.1 µM) | 50 µg/mL (≈ 54.1 µM) | 25 µg/mL (≈ 27.1 µM) | 25 µg/mL (≈ 27.1 µM) | 50 µg/mL (≈ 54.1 µM) | – | – | – | – | – | –
2 | CN[C@@H]1[C@H](O[C@H]2[C@H](O[C@H]3[C@H](O)[C@@H](O)[C@H](N=C(N)N)[C@@H](O)[C@@H]3N=C(N)N)O[C@@H](C)[C@]2(O)C=O)O[C@@H](CO)[C@H](O)[C@H]1O [STREPTOMYCIN] | – | – | – | – | – | 50 µg/mL (≈ 86 µM) | 12.5 µg/mL (≈ 21.5 µM) | 50 µg/mL (≈ 86 µM) | 50 µg/mL (≈ 86 µM) | 20 µg/mL (≈ 34.4 µM) | –
3 | c1ccc(C2CC(=NNc3nc4ccccc4s3)CC(c3ccccc3)N2)cc1 (stereo not drawn) | – | 200 µg/mL (≈ 502 µM) | 100 µg/mL (≈ 251 µM) | 200 µg/mL (≈ 502 µM) | 200 µg/mL (≈ 502 µM) | – | 100 µg/mL (≈ 251 µM) | 200 µg/mL (≈ 502 µM) | 200 µg/mL (≈ 502 µM) | 200 µg/mL (≈ 502 µM) | inactive
4 | COc1ccc(C2C/C(=N\Nc3nc4ccccc4s3)C(C)C(c3ccc(OC)cc3)N2)cc1 (stereo not drawn) | inactive | 100 µg/mL (≈ 212 µM) | 100 µg/mL (≈ 212 µM) | inactive | 200 µg/mL (≈ 423 µM) | 100 µg/mL (≈ 212 µM) | 200 µg/mL (≈ 423 µM) | 100 µg/mL (≈ 212 µM) | – | 50 µg/mL (≈ 106 µM) | –
5 | CC1/C(=N/Nc2nc3ccccc3s2)CC(c2ccc(Cl)cc2)NC1c1ccc(Cl)cc1 (stereo not drawn) | 200 µg/mL (≈ 415 µM) | 50 µg/mL (≈ 104 µM) | – | 200 µg/mL (≈ 415 µM) | 100 µg/mL (≈ 208 µM) | – | 50 µg/mL (≈ 104 µM) | 25 µg/mL (≈ 51.9 µM) | 100 µg/mL (≈ 208 µM) | 50 µg/mL (≈ 104 µM) | inactive
6 | CC1/C(=N/Nc2nc3ccccc3s2)CC(c2ccc(F)cc2)NC1c1ccc(F)cc1 (stereo not drawn) | 200 µg/mL (≈ 446 µM) | 100 µg/mL (≈ 223 µM) | 100 µg/mL (≈ 223 µM) | 100 µg/mL (≈ 223 µM) | 100 µg/mL (≈ 223 µM) | – | 100 µg/mL (≈ 223 µM) | – | 200 µg/mL (≈ 446 µM) | 25 µg/mL (≈ 55.7 µM) | inactive
7 | CC1/C(=N/Nc2nc3ccccc3s2)CC(c2ccccc2Cl)NC1c1ccccc1Cl (stereo not drawn) | 100 µg/mL (≈ 208 µM) | 200 µg/mL (≈ 415 µM) | 200 µg/mL (≈ 415 µM) | 100 µg/mL (≈ 208 µM) | 50 µg/mL (≈ 104 µM) | – | 100 µg/mL (≈ 208 µM) | 200 µg/mL (≈ 415 µM) | 100 µg/mL (≈ 208 µM) | 100 µg/mL (≈ 208 µM) | inactive
8 | CC1/C(=N/Nc2nc3ccccc3s2)CC(c2ccc(Br)cc2)NC1c1ccc(Br)cc1 (stereo not drawn) | 100 µg/mL (≈ 175 µM) | 200 µg/mL (≈ 351 µM) | 200 µg/mL (≈ 351 µM) | 50 µg/mL (≈ 87.7 µM) | 200 µg/mL (≈ 351 µM) | – | 200 µg/mL (≈ 351 µM) | 200 µg/mL (≈ 351 µM) | 200 µg/mL (≈ 351 µM) | 100 µg/mL (≈ 175 µM) | inactive
9 | CC1/C(=N/Nc2nc3ccccc3s2)CC(c2ccccc2)NC1c1ccccc1 (stereo not drawn) | 200 µg/mL (≈ 485 µM) | – | 100 µg/mL (≈ 242 µM) | 200 µg/mL (≈ 485 µM) | 100 µg/mL (≈ 242 µM) | 200 µg/mL (≈ 485 µM) | 100 µg/mL (≈ 242 µM) | 25 µg/mL (≈ 60.6 µM) | 200 µg/mL (≈ 485 µM) | 100 µg/mL (≈ 242 µM) | –
10 | CCC1/C(=N/Nc2nc3ccccc3s2)CC(c2ccccc2)NC1c1ccccc1 (stereo not drawn) | 200 µg/mL (≈ 469 µM) | 100 µg/mL (≈ 234 µM) | 200 µg/mL (≈ 469 µM) | 100 µg/mL (≈ 234 µM) | – | – | 200 µg/mL (≈ 469 µM) | – | 100 µg/mL (≈ 234 µM) | 50 µg/mL (≈ 117 µM) | inactive
